# In publication PMC10180065, “Mechanistic Studies of Arene–Ruthenium(II) Complexes with Carbothioamidopyrazoles as Alternative Cancer Drugs” (Molecules, 2023):
# Assays:
# Ishikawa = assay: MTT cytotoxicity, Ishikawa; assay type: cell-based, human; conditions: 48 h incubation, read-out: Cytotoxic effect, IC50
# Method: (§1) Cytotoxicity was evaluated against fifteen adherent human cancer cell lines using the MTT test: colorectal adenocarcinoma cells Caco2 (ATCC® HTB-37™), colorectal adenocarcinoma cells HT29 (ATCC® HTB-38™), colon colorectal carcinoma HCT116 (ATCC® CCL-247™), colon adenocarcinoma COLO205 (ATCC® CCL-222™), colorectal adenocarcinoma SW620 (ATCC® CCL-227™), colorectal adenocarcinoma grade IV LoVo (ATCC® CCL-229™), hepatocellular carcinoma Hep 3b (ATCC® HB-8064™), endometrium adenocarcinoma HEC1A (ATCC® HTB-112™), Ishikawa (99040201; Sigma–Aldrich Sigma, St. Louis, MO, USA), cervical adenocarcinoma cells HeLa (ATCC® CCL-2™), lung epithelial carcinoma A549 (ATCC® CRM-CCL-185™), breast epithelial adenocarcinoma cell positive for estrogen and progesterone receptors MCF7 (ATCC® HTB-22™) and negative for expression of estrogen receptor HCC38 (ATCC® CRL-2314™), acute promyelocytic leukemia HL-60 (ATCC® CCL-240™), skin melanoma WM115 (ATCC® CRL-1676™), and 1 suspension cancer cell line: acute lymphoblastic leukemia NALM6 (purchased from the German Collection of Microorganisms and Cell Cultures). HT29, NALM6, HCC-38 and HL-60 cells were cultured in RPMI 1640 medium (Thermo Fisher Scientific, Waltham, MA, USA) supplemented with 10% fetal bovine serum and antibiotic (gentamicin 25 μg ml^−1) (Gibco, Grand Island, New York, NY, USA). For the remaining tumor cell lines, Dulbecco’s minimal essential medium (DMEM, Lonza, Visp, Switzerland) supplemented with 10% fetal bovine serum and antibiotic instead of RPMI 1640 was used. In addition, Human Microvascular Endothelial Cells (HMEC1), which were obtained from the American Type Culture Collection (Manassas, VA, USA), were used as a model of normal cells. HMEC-1 were cultured in MCDB131 medium (Corning Life Sciences, Corning, NY, USA), supplemented with 10% fetal bovine serum, 10 ng/mL Epidermal Growth Factor (Millipore, Burlington, MA, USA) and 10 mM glutamine (Corning Life Sciences). All cells were grown at 37 °C in humidified atmosphere of 5% CO2 in air. The exponential growth of cells was maintained by regular passaging at 90% confluence three times a week using 0.025% trypsin/EDTA (Gibco, Grand Island, New York, NY, USA).
# (§2) The cytotoxicity was tested by a standard MTT [3-(4,5-dimethylthiazol-2-yl)-2,5-diphenyltetrazolium bromide] (Sigma, St. Louis, MO, USA) microplate cell viability assay. The anticancer activity of the investigated compounds was evaluated in vitro on the basis of their ability to inhibit the proliferation of various cancer cells. Exponentially growing cells were seeded a day before the experiment into a 96-well microplate (Nunc, Roskilde, Denmark) at a density up to 6–8 × 10^3 cells/mL (depending on the cell line) and exposed to the test compounds at a wide range of concentrations for 48 h. Subsequently, various concentrations of the studied compounds (10^−7–10^−5 M) freshly prepared in DMSO (final concentration of <0.1% DMSO) and diluted with complete culture medium were added. After 48 h incubation, the cells were immediately subjected to a cell viability assay. At this time point, the number of viable cells in each well was estimated by the MTT test. Briefly, 50 µL (5 mg/mL final concentration) of MTT was added to each microplate well. This procedure was then followed by a three- to four-hour incubation at 37 °C. After incubation, MTT solution was replaced with 100 µL DMSO/well, which solubilized the formazan crystals formed by the dehydrogenases of metabolically active cells. Purple formazan absorbance was measured spectrophotometrically at 570 nm.
# NALM6 = assay: MTT cytotoxicity, NALM6; assay type: cell-based, human; conditions: 48 h incubation, read-out: Cytotoxic effect, IC50
# Method: as §1, §2
# HEC1A = assay: MTT cytotoxicity, HEC1A; assay type: cell-based, human; conditions: 48 h incubation, read-out: Cytotoxic effect, IC50
# Method: as §1, §2
# [1] = test system: human microvascular endothelial cell line HMEC1; assay: MTT cytotoxicity, normal endothelial cells HMEC1; assay type: cell-based; conditions: for IC50: HMEC1 normal endothelial cells, 48 h incubation, read-out: Cytotoxic effect, IC50; for IC50 for HMEC-1 higher than for cancer cells (selectivity): HMEC-1 vs cancer cells
# Method: as §1, §2
# Colo205 [2] = assay: MTT cytotoxicity, Colo205; assay type: cell-based, human; conditions: 48 h incubation, read-out: Cytotoxic effect, IC50
# Method: as §1, §2
# PARP1 [3] = assay: Cleaved PARP level (ELISA), WM115 cells; assay type: cell-based, human; conditions: WM115, 24 h at IC50 concentration
# Method: (§3) Cells (1 × 10^6) were seeded in 35 mm dishes and cultured for 24 h in the appropriate medium until they reached log phase growth. […] After incubation, the medium was removed, the cells were washed with PBS solution and trypsinized. The harvested cell pellet was lysed in RIPA buffer (50 mM Tris-HCL, pH 8.0, with 150 mM sodium chloride, 1.0% Igepal CA-630 (NP-40), 0.5% sodium deoxychlorate, and 0.1% sodium dodecyl sulfate) with protease inhibitor (phenylmethylsulfonyl fluoride) (Sigma-Aldrich Sigma, St. Louis, MO, USA). The level of cleaved PARP was estimated using the PARP Cleaved [214/215] ELISA kit (Invitrogen, Waltham, MA, USA) according to the protocol described in the manufacturer’s instructions.
# HT29 = assay: MTT cytotoxicity, HT29; assay type: cell-based, human; conditions: 48 h incubation, read-out: Cytotoxic effect, IC50
# Method: as §1, §2
# MCF7 = assay: MTT cytotoxicity, MCF7; assay type: cell-based, human; conditions: 48 h incubation, read-out: Cytotoxic effect, IC50
# Method: as §1, §2
# Hep 3b = assay: MTT cytotoxicity, Hep 3b; assay type: cell-based, human; conditions: 48 h incubation, read-out: Cytotoxic effect, IC50
# Method: as §1, §2
# [4] = pH dependent stability of the complexes (UV–Vis); assay type: physicochemical; conditions: 24 h and 48 h
# Method: The stability measurements were performed on a UV 1800 Shimadzu spectrophotometer (Kyoto, Japan) at room temperature. The complexes 2d and 3d were tested for the stabilities in buffer Na2HPO4 (pH 4 and 8). UV–Vis spectra were recorded hourly for 48 h at 22 °C. The spectra were recorded in the range of 200–800 nm over a time course of 0, 24, and 48 h.
# Lipophilicity by RP-TLC = assay type: physicochemical; set-up: key: RM = log(1/Rf − 1), Rf = a/b; conditions: eluent AcCN: H2O at 30–70% v/v, 22 °C
# Method: All the experimental solutions of standard substances (0.1 mg/mL) were prepared by dissolving ligands (1a–1d) or ruthenium complexes (2a/3a–2d/3d) in ethanol. Commercially-available octadecyl-modified silica aluminum sheets (20 × 20 cm) were cut into 5 × 10 cm plates. The plates were manually spotted with 1.0 μL of freshly prepared solutions using automatic pipets, 5 mm from each edge. The chromatograms for all compounds (1a/2a/3a–1d/2d/3d) were developed using a horizontal developing chamber and the solvent migration distance was about 4.5 cm. The plates were visually inspected under UV light at 254 nm. Each zone was clearly marked and its distance was manually measured. The RP-TLC analyses of lipophilicity were performed at ambient temperature (22 °C). In this experiment, all measurements were performed in triplicate and the obtained results were used in further calculations. The acetonitrile and water mixtures for ligands 1a–1d and arene–ruthenium(II) complexes 2a/3a–2d/3d were used as mobile phases, with […] content increasing in the range of 30–70% v/v, at 5% intervals. Values of the chromatographic retention coefficient Rf (as shown Formula (1)) and RM (as shown Formula (2)), based on received chromatograms, were calculated and converted as follows:(1) Rf=a/b (2) RM=log1/Rf−1
# Caco2 = assay: MTT cytotoxicity, Caco2; assay type: cell-based, human; conditions: 48 h incubation, read-out: Cytotoxic effect, IC50
# Method: as §1, §2
# LoVo = assay: MTT cytotoxicity, LoVo; assay type: cell-based, human; conditions: 48 h incubation, read-out: Cytotoxic effect, IC50
# Method: as §1, §2
# HL60 = assay: MTT cytotoxicity, HL60; assay type: cell-based, human; conditions: 48 h incubation, read-out: Cytotoxic effect, IC50
# Method: as §1, §2
# WM115 = assay: MTT cytotoxicity, WM115; assay type: cell-based, human; conditions: 48 h incubation, read-out: Cytotoxic effect, IC50
# Method: as §1, §2
# Hela = assay: MTT cytotoxicity, Hela; assay type: cell-based, human; conditions: 48 h incubation, read-out: Cytotoxic effect, IC50
# Method: as §1, §2
# HCC38 = assay: MTT cytotoxicity, HCC38; assay type: cell-based, human; conditions: 48 h incubation, read-out: Cytotoxic effect, IC50
# Method: as §1, §2
# SW620 = assay: MTT cytotoxicity, SW620; assay type: cell-based, human; conditions: 48 h incubation, read-out: Cytotoxic effect, IC50
# Method: as §1, §2
# A549 = assay: MTT cytotoxicity, A549; assay type: cell-based, human; conditions: 48 h incubation, read-out: Cytotoxic effect, IC50
# Method: as §1, §2
# PARP1 [5] = assay: Cleaved PARP level (ELISA), COLO205 cells; assay type: cell-based, human; conditions: COLO205, 24 h at IC50 concentration
# Method: as §3
# human cancer cell lines = assay: MTT cytotoxicity, summary statements over the cancer cell line panel; assay type: cell-based; conditions: read-out: IC50 for seven (2c) and six (3c) cancer cell lines
# Method: (§4) Cytotoxicity was evaluated against fifteen adherent human cancer cell lines using the MTT test: colorectal adenocarcinoma cells Caco2 (ATCC® HTB-37™), colorectal adenocarcinoma cells HT29 (ATCC® HTB-38™), colon colorectal carcinoma HCT116 (ATCC® CCL-247™), colon adenocarcinoma COLO205 (ATCC® CCL-222™), colorectal adenocarcinoma SW620 (ATCC® CCL-227™), colorectal adenocarcinoma grade IV LoVo (ATCC® CCL-229™), hepatocellular carcinoma Hep 3b (ATCC® HB-8064™), endometrium adenocarcinoma HEC1A (ATCC® HTB-112™), Ishikawa (99040201; Sigma–Aldrich Sigma, St. Louis, MO, USA), cervical adenocarcinoma cells HeLa (ATCC® CCL-2™), lung epithelial carcinoma A549 (ATCC® CRM-CCL-185™), breast epithelial adenocarcinoma cell positive for estrogen and progesterone receptors MCF7 (ATCC® HTB-22™) and negative for expression of estrogen receptor HCC38 (ATCC® CRL-2314™), acute promyelocytic leukemia HL-60 (ATCC® CCL-240™), skin melanoma WM115 (ATCC® CRL-1676™), and 1 suspension cancer cell line: acute lymphoblastic leukemia NALM6 (purchased from the German Collection of Microorganisms and Cell Cultures). […]
# (§5) The cytotoxicity was tested by a standard MTT [3-(4,5-dimethylthiazol-2-yl)-2,5-diphenyltetrazolium bromide] […] The anticancer activity of the investigated compounds was evaluated in vitro on the basis of their ability to inhibit the proliferation of various cancer cells. […]
# Colo205 [6] = assay: RNS generation, DAF-FM probe, COLO205; assay type: cell-based, human; conditions: COLO205, 24 h at IC50 concentration
# HCT116 = assay: MTT cytotoxicity, HCT116; assay type: cell-based, human; conditions: 48 h incubation, read-out: Cytotoxic effect, IC50
# Method: as §4, §5
Structure (SMILES),IC50 (Ishikawa),IC50 (NALM6),IC50 (HEC1A),IC50 [1],IC50 for HMEC-1 higher than for cancer cells (selectivity) [1],IC50 (Colo205 [2]),IC50 (HT29),IC50 (MCF7),IC50 (Hep 3b),"Lipophilicity, RM (Lipophilicity by RP-TLC)",IC50 (Caco2),IC50 (LoVo),IC50 (HL60),IC50 (WM115),IC50 (Hela),IC50 (HCC38),IC50 (SW620),IC50 (A549),also measured
Cc1cc(O)n(C(N)=S)n1.Cc1ccc(C(C)C)cc1.[Cl-].[Cl][Ru+] [2d],100 ± 6.7 µM,> 200 µM,67.8 ± 6.1 µM,163 ± 5.9 µM,3–5 times,> 200 µM,168 ± 7.5 µM,> 200 µM,> 200 µM,1.64,> 200 µM,> 200 µM,> 200 µM,8 ± 0.9 µM,111 ± 1.7 µM,> 200 µM,> 200 µM,> 200 µM,"increase in level of PARP1 degradation compared to controls (PARP1 [3]): approximately 115%; Stability, UV–Vis absorption maxima ([4]; pH 4 buffer): did not change; Stability, UV–Vis absorption maxima ([4]; pH 8 buffer): loss absorption"
Cc1ccc(C(C)C)cc1.F[P-](F)(F)(F)(F)F.NC(=S)n1nc(-c2ccccc2)cc1O.[Cl-].[Ru+2] [3c],124.3 ± 0.9 µM,19.8 ± 1.8 µM,39.9 ± 4.1 µM,164 ± 3.1 µM,3–5 times,26.7 ± 2.1 µM,128 ± 4.2 µM,30.4 ± 2.1 µM,52.1 ± 3.4 µM,2.61,172 ± 8.2 µM,32.4 ± 1.8 µM,70.4 ± 6 µM,18.7 ± 1.7 µM,78.8 ± 1.1 µM,131 ± 2.2 µM,90.1 ± 1.7 µM,191 ± 4.3 µM,"increase in level of PARP1 degradation vs. control (PARP1 [5]): approximately 85%; IC50 (human cancer cell lines): < 50 µM; increase in nitrogen peroxide (RNS, DAF-FM probe) vs. control (Colo205 [6]): ~25%"
"Cl.[Cl-].[Cl-].[Cl-].[Ru+3].c1c[nH]cn1.c1c[nH]cn1 [NAMI-A, reference compound]",> 200 µM,> 200 µM,> 200 µM,,,> 200 µM,> 200 µM,14.1 ± 1.5 µM,> 200 µM,,,,,> 200 µM,,,> 200 µM,,IC50 (HCT116): > 200 µM
